Test results taken from PMC10447463, “Data-mining unveils structure–property–activity correlation of viral infectivity enhancing self-assembling peptides” (Nature Communications, 2023).
Like-named read-outs stand apart in the source and are kept apart here.

Tests used:
[1] = β-sheet content by ATR-FT-IR; type: physicochemical; details: for b -sheet / %: Fig. S7 panel A, β-sheet content by ATR-FT-IR; for beta sheet: peptides with TEM 2cat 0
Summary of the method: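 β-sheet content came from ATR FT-IR spectra of lyophilized 1 mg/mL nanofibril solution (64 scans, 2 cm^-1 resolution). Conversion was measured by separating free monomer with a 3 kDa cutoff filter, then comparing fluorescamine fluorescence (ex 365/em 470 nm, 20 min RT) of filtrate versus unfiltered sample, in triplicate.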

[2] = Turbidity, derived count rate of scattered light; type: physicochemical; details: for Count Rate: derived count rate of scattered light (turbidity); for Log10 Count Rate: turbidity, derived count rate of scattered light, data of Figure 2D
[3] = Turbidity, derived count rate of scattered light; type: physicochemical; details: for Count Rate / kcps: derived count rate of scattered light at 633 nm, 173°, from zeta-potential measurement, 0.1 mg/mL in 1 mM KCl after 1 d at 1 mg/mL in PBS, turbidity / microscopic aggregation, mean of triplicate; for Zeta Count Rate: peptides with TEM 2cat 0
Summary of the method: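 Samples: 1 mg/mL in PBS pH 7.4 (from DMSO), 1 d at RT, then diluted in 1 mM KCl immediately before measurement. Triplicates, two independent runs averaged.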

[4] = test system: HIV-1 infection of TZM-bl cells; test: HIV-1 infectivity enhancement assay, β-galactosidase luminescence; type: cell-based; details: for Rel-EFC / Log10 Infection Rel EFC: 1.3 µM peptide; for Rel-EFC: infection relative to EF-C (QCKIKQIINMWQ = 1); for Log10 Infection Rel EFC: log10 of infection relative to EF-C; for Log Infectivity: Log10 infection relative to EF-C, asymmetric std dev errors; for Log Infectivity / Abs. Inf.: TZM-bl cells; for Log10 Infection Rel EF-C: HIV-1 infection of TZM-bl cells; for Log10 of Rel to EFC (Feb2021): Log10 of infection relative to EF-C; for Abs. Inf.: absolute HIV-1 infection signal, β-galactosidase luminescence
[5] = Zeta-potential measurement; type: physicochemical
Summary of the method: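 Zeta potentials of aggregated peptides come from electrophoretic mobility (Smoluchowski model) in 1 mM KCl after a 1 d RT incubation at 1 mg/mL in PBS, pH 7.4.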

[6] = Log10 of derived count rate of scattered light (turbidity)
[7] = log10 of derived count rate of scattered light (turbidity)
[8] = logarithm of count rate in kcps
[9] = turbidity, Log10 of derived count rate of scattered light, Figure 3A source data
[10] = Fig. S7 panel A (plotted against β-sheet content)
[11] = Fig. S7 panel B (plotted against CR), rounded to two decimals
[12] = Log10 of infection rate relative to EF-C, Figure 3A source data
[13] = infection rate relative to EF-C, log10, data of Figure 2D
[14] = infection rate relative to EF-C, log10, source data of Figure 2C
[15] = second listing, peptides with TEM 2cat 0
[16] = zeta potential of peptide assemblies
[17] = zeta-potential of peptide, source data of Figure 2C
[18] = zeta-potential of the peptide assemblies, mean, Figure 3A source data

Row | Sequence | b -sheet / % [1] | Count Rate [2] | Log10 Count Rate [2] | Log10 Count Rate [3, 6] | Count Rate / kcps [3] | Log10 Count Rate [3, 7] | Log10 Count Rate [3, 8] | Log10 Count Rate [3, 9] | Rel-EFC [4] | Log10 Infection Rel EFC [4] | Log Infectivity [4, 10] | Log10 Infection Rel EF-C [4, 12] | Log10 Infection Rel EF-C [4, 13] | Log10 Infection Rel EF-C [4, 14] | Log10 of Rel to EFC (Feb2021) ([4]; all peptides of FigS16) | Zeta-Pot. [5, 16] | Zeta-Potential / mV [5, 17] | Zeta-Potential / mV [5, 18] | further results
1 | HHHHKIKIKIKIWWWW | 48.8% | 23756.66667 | 4.376 | 4.376 | 23757 kcps | 4.376 | 4.376 | 4.376 | 0,38 | -0,42 | -0.4216 | -0.42 | -0.4216 | -0.4216 | -0.42 | 14.5 | 14.42 mV | 14.5 mV | beta sheet [1]: 49; Zeta Count Rate [3]: 23757 kcp; Log Infectivity [4, 11]: -0.42; Log10 of Rel to EFC (Feb2021) [4, 15]: -0.42
2 | HHHHKIKIKIKIYYYY | 53.27% | 12792.53333 | 4.107 | 4.107 | 12793 kcps | 4.107 | 4.107 | 4.107 | 0,68 | -0,17 | -0.1685 | -0.17 | -0.1685 | -0.1685 | -0.17 | 13.2 | 12.88 mV | 13.2 mV | beta sheet [1]: 53; Zeta Count Rate [3]: 12793 kcp; Log10 of Rel to EFC (Feb2021) [4, 15]: -0.17; Abs. Infection at 0.26 µM ([4]; peptide 0.26 µM, mean of n = 3, Figure 4A): 8963; Infect 1 0.26 µM ([4]; peptide 0.26 µM, replicate 1, absolute infection signal, Figure 4A): 7733.33; Infect 2 0.26 µM ([4]; peptide 0.26 µM, replicate 2, absolute infection signal, Figure 4A): 6433.33; Infect 3 0.26 µM ([4]; peptide 0.26 µM, replicate 3, absolute infection signal, Figure 4A): 12723.33; Abs. Infection at 1.3 µM ([4]; peptide 1.3 µM, mean of n = 3, Figure 4A): 20713.33333; Infect 1 .3 µM ([4]; peptide 1.3 µM, replicate 1, absolute infection signal, Figure 4A): 24723.33; Infect 2 1.3µM ([4]; peptide 1.3 µM, replicate 2, absolute infection signal, Figure 4A): 15203.33; Infect 3 1.3 µM ([4]; peptide 1.3 µM, replicate 3, absolute infection signal, Figure 4A): 22213.33
3 | HHHHKIKIQINMYYYY | 46.73% | 5659 | 3.753 | 3.753 | 5659 kcps | 3.753 | 3.753 | 3.753 | 1,11 | 0,04 | 0.04454 | 0.04 | 0.04454 | 0.04454 | 0.04 | 7.807 | 7.147 mV | 7.81 mV | Log Infectivity [4, 11]: 0.04
4 | IKVAVKIKIQINM | 58.1% | 4848 | 3.686 | 3.686 | 4848 kcps | 3.686 |  | 3.686 | 0,5 | -0,3 | -0.3046 | -0.3 | -0.3046 | -0.3046 | -0.3 |  | 14.18 mV | 14.5 mV | Abs. Inf. [4]: 17920; Zeta-Pot. [5]: 14.5
5 | ILKNLSRSRKIKIQIC | 37.6% | 2392 | 3.379 | 3.379 | 2392 kcps | 3.379 |  | 3.379 | 0,34 | -0,47 | -0.4741 | -0.47 | -0.4741 | -0.4741 | -0.47 | 18 | 19.25 mV | 18 mV | 
6 | ILKNLSRSRKIKIQINMWQ | 39.13% | 306.5 | 2.486 | 2.486 | 307 kcps | 2.486 |  | 2.486 | 0,32 | -0,49 | -0.4939 | -0.49 | -0.4939 | -0.4939 | -0.49 |  | 17.9 mV | 19.2 mV | Abs. Inf. [4]: 1797; Zeta-Pot. [5]: 19.2
7 | KAKAKAQA | 39.62% | 76.93 | 1.886 | 1.886 | 77 kcps | 1.886 |  | 1.886 | 0,01 | -2,06 | -2.06 | -2.06 | -2.06 | -2.06 |  | -9.01 | -5.297 mV | -9.01 mV | 
